The results in this text go back to ChEMBL document CHEMBL5614430, “Discovery, synthesis and SAR of 2-acyl-1-biarylmethyl pyrazolidines, dual orexin receptor antagonists designed as fast and short-acting sleeping drugs” (Bioorg Med Chem, 2024).

Molecules are shown by their SMILES.

One series in a line: in vitro. Particulars: dog, MDCK-MDR1, Papp.
A short description of another series: physchem. Particulars: buffer, pH 7.4.
Series [1] in a line: in vivo. Particulars: Beagle, dog, iv, 1 mg/kg.
The nature of series [2]: in vivo. Particulars: Beagle, dog, iv, 1 mg/kg. The source holds these as a separate data set.
Series [3] is described as follows: in vivo. Particulars: Beagle, dog, po, 10 mg/kg.
The nature of series [4]: in vivo. Particulars: Beagle, dog, po, 10 mg/kg. This is another data set of the same source.
Series [5] can be described thus: in vivo. Particulars: Beagle, dog, po, 10 mg/kg. This is another data set of the same source.
Series [6] is described as follows: in vivo. Particulars: Beagle, dog, po, 10 mg/kg. The source holds these as a separate data set.

Consider `Cn1ccc(C(=O)N2C[C@@H]3CCc4cc(F)ccc4[C@@H]3N2Cc2cccc(-c3ncccn3)c2)n1` (racemic), for which the Papp A→B (in general, how fast a substance crosses the layer from the apical side) in the series “in vitro” stood at 9.3 ×10⁻⁶ cm/s. For the same compound, the logD (commonly lipophilicity at a set pH, counting ionised and neutral species) in the series “physchem” was 3.3.
The compound `O=C(C1CCCCC1)N1C[C@@H]2COc3ccccc3[C@@H]2N1Cc1cccc(-c2ncon2)c1` yielded a logD in “physchem” of over 4.1.
On to `COc1cc(CN2[C@H]3c4ccccc4OC[C@H]3CN2C(=O)C2CCCCC2)cc(OC)c1`, for which, in “in vitro”, the Papp A→B was determined as 17 ×10⁻⁶ cm/s. The same compound returned a logD in the series “physchem” of 3.8.
Taken in the same sequence, the figures for `Cn1ccc(C(=O)N2C[C@@H]3COc4cc(F)ccc4[C@@H]3N2Cc2cccc(-c3ncccn3)c2)n1` (racemic) were 0.78 ×10⁻⁶ cm/s and 2.8.
For the compound `Cc1ccc(-n2nccn2)c(C(=O)N2CCCN2Cc2ccn(-c3ccccc3)n2)c1`, the clearance (commonly the volume of plasma or blood freed of the substance per unit of time) in “in vivo [1]” was found to be 17 mL/min/kg. The Vd (usually a proportionality between amount in the body and measured concentration, not a real space) in the series “in vivo [2]” is 0.8 L/kg. For the same compound, the bioavailability (usually the share of a dose that reaches the circulation, judged against a reference dose that is usually intravenous) in “in vivo [3]” came to 10%. The AUC (commonly concentration integrated over time) in the series “in vivo [4]” worked out at 1040 ng·h/mL. Further, the peak level in the series “in vivo [5]” (Cmax) was 287 ng/mL. Also, the Tmax – broadly, the time at which the peak concentration occurs – in “in vivo [6]” was 3.55 h.
